Where no end group is shown, it is not given here. The star is where a group is joined. Myristoyl = CCCCCCCCCCCCCC(=O)*
Tested on: Mut-p53
Assay: Total activity score over combined assays (Table 8)
Parameters: scale not given here
Settings: for Activity Score: Table 10 summary of activity of the peptides tested; for AS (Activity Score): total score of Table 7; for PCR, activity score / Conformation, activity score: Table 8; for PCR, activity score: head span not shown; for Conformation, activity score: the 14 score columns c4-c17 stand under the heads Conformation, DNA binding, Viability, PCR
Excerpt: Several alternative and complementary methods to screen lead peptide candidates for conformational and functional effects on Mut-p53 were employed. For increased penetration of peptide across cell membranes each peptide contains 3-6 Arginine residues either as part of its sequence or added either at its N-terminus or its C-terminus. […] In-vitro based assays for evaluation were first performed, such as ELISA for assessment of p53 conformation and sequence-specific DNA binding of p53.

Row | Substance | Activity Score | AS (Activity Score) | PCR, activity score | Conformation, activity score
1 | pCAP126 (RRLRICV) | 0 | 0 |  | 
2 | pCAP75 (TRILCIVRKKRRQRRRRGDR) | 32 | 32 |  | 
3 | pCAP179 (ILVI) | 0 | 0 |  | 
4 | pCAP131 (LPNPPERHHRRRRRRRRRRR) | 18 | 18 |  | 
5 | pCAP12 (GGGGGGGGGGGG) | 0 | 0 |  | 
6 | pCAP101 (IRFILIR) | 3 | 3 |  | 
7 | pCAP84 (GRRRFCM) | 0 | 0 |  | 
8 | pCAP168 (CRIIR) | 0 | 0 |  | 
9 | pCAP233 (SHYHTPQNPPSTRRR) | 11 |  |  | 
10 | pCAP178 (RRVI) | 0 | 0 |  | 
11 | pCAP249 (Myristoyl-DERTGKTRRYIDTRDIRR) | 6 |  |  | 
12 | pCAP113 (HTTAHTH) | 3 | 3 |  | 
13 | pCAP201 (HPTHPIRLRDNLTR) | 3 |  |  | 
14 | pCAP213 (RRIKMIRTSESFIQHIVS) | 5 |  |  | 
15 | pCAP9 (TIIHREDEDEIEW) | 17 | 17 |  | 
16 | pCAP45 (HDTHNAHVG) | 0 | 0 |  | 
17 | pCAP323 (Myristoyl-DLHTIHIPRDRR) | 0 |  |  | 
18 | pCAP11 (EWKERLDKEFSLSVYQKMKF) | 16 | 16 |  | 
19 | pCAP112 (TTSHHPK) | 2 | 2 |  | 
20 | pCAP67 (LHSKTLVLGGGRRRRGDR) | 2 | 2 |  | 
21 | pCAP299 (ILQPDFLIRPE) | 2 |  |  | 

Row | Substance | Activity Score | AS (Activity Score) | PCR, activity score | Conformation, activity score
22 | pCAP98 (HSSGHNFVLVRQ) | 2 | 2 |  | 
23 | pCAP275 (Myristoyl-MTYSDMPRRIITDEDRRR) | 6 |  |  | 
24 | pCAP257 (Myristoyl-HSSHHHPTVQHRR) | 8 |  |  | 
25 | pCAP51 (AILTLILRRVIWP) | 4 | 4 |  | 
26 | pCAP61 (KDLPFYSHLSRQ) | 17 | 17 |  | 
27 | pCAP66 (THFSHHLKGGGRRQRRRP) | 2 | 2 |  | 
28 | pCAP298 (RRIRDPLGNEHE) | 3 |  |  | 
29 | pCAP234 (HRTGHYTRCRQRCRSRSHNRH) | 2 |  |  | 
30 | pCAP244 (RRVSELQRNKHGRKHEL) | 5 |  |  | 
31 | pCAP157 (SFILFIRRGRLGRKKRRQRRRP) | 37 | 37 |  | 
32 | pCAP239 (REGFYGPWHEQRRR) | 4 |  |  | 
33 | pCAP266 (HHRLSYFIVRRHSTHASR) | 2 |  |  | 
34 | pCAP290 (RYKEPRITPRE) | 6 |  |  | 
35 | pCAP10 (VAEFAQSIQSRIVEWKERLD) | 8 | 8 |  | 
36 | pCAP14 (HHFSHHWKT) | 9 | 9 |  | 
37 | pCAP232 (RSRSSHLRDHERTHT) | 0 |  |  | 
38 | pCAP320 (EPSHPRSRYPRTF) | 0 |  |  | 
39 | pCAP300 (RIRRDPDSPLPHPE) | 0 |  |  | 
40 | pCAP91 (STTHIHA) | 7 | 7 |  | 
41 | pCAP317 (RRDIHTIHPFYQ) | 43 |  | 3 | 5
42 | pCAP303 (IVEFRIRR) | 3 |  |  | 

Row | Substance | Activity Score | AS (Activity Score) | PCR, activity score | Conformation, activity score
43 | pCAP120 (SIRTLGRFLIIRV) | 3 | 3 |  | 
44 | pCAP292 (YDELYQKEDPHRRR) | 0 |  |  | 
45 | pCAP18 (SHQVHTHHNN) | 6 | 6 |  | 
46 | pCAP37 (KLQVPIK) | 6 | 6 |  | 
47 | pCAP85 (KLTIHHH) | 0 | 0 |  | 
48 | pCAP29 (KPDSPRV) | 0 | 0 |  | 
49 | pCAP166 (KPPER) | 0 | 0 |  | 
50 | pCAP173 (RLRRL) | 0 | 0 |  | 
51 | pCAP102 (SSVHHRG) | 3 | 3 |  | 
52 | pCAP255 (DPEPPRYLPPPPERR) | 0 |  |  | 
53 | pCAP111 (SNIHHQV) | 5 | 5 |  | 
54 | pCAP155 (IRGRIIRRRRRRRRRR) | 41 | 41 |  | 
55 | pCAP145 (HSSHHHPVHSWNRRRRRRR) | 7 | 7 |  | 
56 | pCAP217 (HSTPHPPQPPERRR) | 2 |  |  | 
57 | pCAP13 (HFSHHLK) | 4 | 4 |  | 
58 | pCAP76 (GGGGGGGGGRRRRRRR) | 0 | 0 |  | 
59 | pCAP42 (MHPPDWYHHTPKH) | 29 | 29 |  | 
60 | pCAP147 (ATQHHYIKRRRRRRRRRRR) | 10 | 10 |  | 
61 | pCAP315 (LHFSHIDRR) | 9 |  |  | 
62 | pCAP308 (Myristoyl-RRICRFIRICRVR; cysteine pairing not given here) | 40 |  | 6 | 
63 | pCAP36 (YPTQGHLR) | 39 | 39 |  | 

Row | Substance | Activity Score | AS (Activity Score) | PCR, activity score | Conformation, activity score
64 | pCAP276 (RRVDIHDGQRR) | 3 |  |  | 
65 | pCAP151 (CILRLWWRRRRRRRRRRR) | 33 | 33 |  | 
66 | pCAP121 (LTLMRLRIIG) | 5 | 5 |  | 
67 | pCAP260 (RRTFIRHRIDSTEVIYQDED) | 0 |  | 6 | 4
68 | pCAP4 (EHDFEVRGDVVNGRNHQGPK) | 2 | 2 |  | 
69 | pCAP297 (HDFDPRYRDRR) | 0 |  |  | 
70 | pCAP96 (GTVDHHA) | 0 | 0 |  | 
71 | pCAP325 (Myristoyl-RRIRDPRILLLHFD) | 61 |  | 6 | 4
72 | pCAP165 (SLLIG) | 0 | 0 |  | 
73 | pCAP28 (HTDSHPHHHHPH) | 24 | 24 |  | 
74 | pCAP146 (HANLHHTRRRRRRRRRRR) | 11 | 11 |  | 
75 | pCAP227 (Myristoyl-RRKILFIRLMHNKH) | 67 |  | 4 | 4
76 | pCAP218 (RREVTELHHTHEDRR) | 0 |  |  | 
77 | pCAP322 (RRIRDPQIK(Myristoyl)LEIHFSHID; not fully specified; printed as RRIRDPQIK-myrLEIHFSHID) | 0 |  |  | 
78 | pCAP307 (HDPRIIRIR) | 2 |  |  | 
79 | pCAP289 (RHNHIRPDNQ) | 6 |  |  | 
80 | pCAP248 (EIYGESGKTDEHALDTEYRR) | 0 |  |  | 
81 | pCAP44 (VPHIHEFT) | 16 | 16 |  | 
82 | pCAP170 (IRILM) | 27 | 27 |  | 
83 | pCAP88 (SYQTMQP) | 6 | 6 |  | 
